Assay results as given in patent publication US8114991B2, “Amino-1,3,5-triazines N-substituted with chiral bicyclic radicals, process for their preparation, compositions thereof, and their use as herbicides and plant growth regulators” (Bayer Cropscience AG, priority 2003, dated 2012).

How the values were obtained:
[1] = tested on: harmful plants such as Stellaria media, Lolium multiforum, Amaranthus retroflexus, Sinapis alba, Avena sativa and Setaria viridis; test: Pre-emergence effect on weeds (greenhouse pot test); assay type: in vivo; conditions: application rate of 1 kg or less of active ingredient per hectare; scored after 3 to 4 weeks by comparison with untreated controls
Excerpt: Seeds or rhizome pieces of monocotyledonous and dicotyledonous weed plants were placed in sandy loam in plastic pots and covered with soil. The compounds according to the invention, which were formulated in the form of wettable powders or emulsion concentrates, were then applied to the surface of the soil cover as aqueous suspension or emulsion at various dosages with an application rate of 600 to 800 l of water per ha (converted).
After the treatment, the pots were placed into a greenhouse and kept under good growth conditions for the weeds. The plant or emergence damage was scored visually after the test plants have emerged after an experimental time of 3 to 4 weeks by comparison with untreated controls.

[2] = tested on: harmful plants such as Sinapis alba, Echinochloa crus-galli, Lolium multiflorum, Stellaria media, Cyperus iria, Amaranthus retroflexus, Setaria viridis, Avena …; test: Post-emergence effect on weeds (greenhouse pot test); assay type: in vivo; conditions: application rate of 2 kg or less of active ingredient per hectare; treated in the three-leaf stage; scored after approx. 3 to 4 weeks by comparison with untreated controls

Row | SMILES | pre-emergence control of harmful plants (plant or emergence damage scored visually) [1] | herbicidal post-emergence activity against harmful plants (scored visually) [2]
1 | Cc1ccc2c(c1)C(Nc1nc(N)nc(C(C)F)n1)C(C)C2 (stereo not drawn) [Compound 6.2] | very good pre-emergence control | very good herbicidal post-emergence activity
2 | CCCc1nc(N)nc(N[C@H]2c3ccccc3C[C@@H]2C)n1 [Compound 7.47] | very good pre-emergence control | very good herbicidal post-emergence activity
3 | CCc1nc(N)nc(N[C@@H]2CCCc3ccc(C)cc32)n1 [Compound 8.35] | very good pre-emergence control | very good herbicidal post-emergence activity
4 | Cc1ccc2c(c1)[C@H](Nc1nc(N)nc(C(C)(Cl)Cl)n1)CC2 [Compound 8.79] | very good pre-emergence control | very good herbicidal post-emergence activity
5 | CCCc1nc(N)nc(N[C@H]2c3cc(C)ccc3C[C@@H]2C)n1 [Compound 7.48] | very good pre-emergence control | very good herbicidal post-emergence activity
6 | CCc1ccc2c(c1)[C@H](Nc1nc(N)nc(C(C)(C)F)n1)CC2 [Compound 8.245] | very good pre-emergence control | very good herbicidal post-emergence activity
7 | CC(C)(F)c1nc(N)nc(N[C@@H]2CCc3ccccc32)n1 [Compound 8.195] | very good pre-emergence control | very good herbicidal post-emergence activity
8 | CCc1nc(N)nc(N[C@@H]2CCc3ccc(C)cc32)n1 [Compound 8.25] | very good pre-emergence control | very good herbicidal post-emergence activity
9 | CC1(c2nc(N)nc(N[C@@H]3CCCc4ccccc43)n2)CC1 [Compound 8.152] | very good pre-emergence control | very good herbicidal post-emergence activity
10 | CCc1nc(N)nc(N[C@H]2c3cc(C)ccc3C[C@@H]2C)n1 [Compound 7.75] | very good pre-emergence control | very good herbicidal post-emergence activity
11 | C[C@H](Cl)c1nc(N)nc(N[C@@H]2CCc3ccccc32)n1 [Compound 3.24] | very good pre-emergence control | very good herbicidal post-emergence activity
12 | Cc1ccc2c(c1)[C@H](Nc1nc(N)nc(C(C)C)n1)CCC2 [Compound 8.71] | very good pre-emergence control | very good herbicidal post-emergence activity
13 | Cc1ccc2c(c1)[C@H](Nc1nc(N)nc([C@H](C)F)n1)CC2 [Compound 3.2] | very good pre-emergence control | very good herbicidal post-emergence activity
14 | Cc1ccc2c(c1)[C@H](Nc1nc(N)nc(C(C)(C)F)n1)CCC2 [Compound 8.206] | very good pre-emergence control | very good herbicidal post-emergence activity
15 | Cc1cc(C)c2c(c1)[C@H](Nc1nc(C)nc(N)n1)CCC2 [Compound 8.15] | very good pre-emergence control | very good herbicidal post-emergence activity
16 | Nc1nc(N[C@@H]2CCc3ccccc32)nc(C2(F)CC2)n1 [Compound 8.160] | very good pre-emergence control | very good herbicidal post-emergence activity
17 | Cc1cc(C)c2c(c1)[C@H](Nc1nc(N)nc([C@H](C)F)n1)CCC2 [Compound 3.15] | very good pre-emergence control | very good herbicidal post-emergence activity

Row | SMILES | pre-emergence control of harmful plants (plant or emergence damage scored visually) [1] | herbicidal post-emergence activity against harmful plants (scored visually) [2]
18 | Cc1ccc2c(c1)C(Nc1nc(N)nc(C(F)C#N)n1)C(C)C2 (mixture of isomers) [Compound 7.243] | very good pre-emergence control | very good herbicidal post-emergence activity
19 | COCc1nc(N)nc(N[C@H]2c3cc(C)ccc3C[C@@H]2C)n1 [Compound 7.72] | very good pre-emergence control | very good herbicidal post-emergence activity
20 | CC1(c2nc(N)nc(N[C@@H]3CCc4ccccc43)n2)CC1 [Compound 8.148] | very good pre-emergence control | very good herbicidal post-emergence activity
21 | Cc1ccc2c(c1)[C@H](Nc1nc(C)nc(N)n1)CC2 [Compound 8.2] | very good pre-emergence control | very good herbicidal post-emergence activity
22 | Nc1nc(N[C@@H]2CCc3ccccc32)nc(C2(Cl)CC2)n1 [Compound 8.183] | very good pre-emergence control | very good herbicidal post-emergence activity
23 | CCc1ccc2c(c1)[C@H](Nc1nc(N)nc([C@@H](C)F)n1)CC2 [Compound 1.68] | very good pre-emergence control | very good herbicidal post-emergence activity
24 | C[C@H](F)c1nc(N)nc(N[C@@H]2CCc3ccccc32)n1 [Compound 3.1] | very good pre-emergence control | very good herbicidal post-emergence activity
25 | Cc1nc(N)nc(N[C@@H]2CCCc3ccccc32)n1 [Compound 8.11] | very good pre-emergence control | very good herbicidal post-emergence activity
26 | CC(F)c1nc(N)nc(NC2CCc3ccccc32)n1 (mixture of isomers) [Compound 10.1] | very good pre-emergence control | very good herbicidal post-emergence activity
27 | Cc1ccc2c(c1)[C@H](Nc1nc(C)nc(N)n1)CCO2 [Compound 8.21] | very good pre-emergence control | very good herbicidal post-emergence activity
28 | C[C@@H](F)c1nc(N)nc(N[C@@H]2CCc3ccc(F)cc32)n1 [Compound 1.3] | very good pre-emergence control | very good herbicidal post-emergence activity
29 | CCC(F)c1nc(N)nc(N[C@@H]2CCOc3ccc(C)cc32)n1 (stereo partly drawn) [Compound 10.57] | very good pre-emergence control | very good herbicidal post-emergence activity
30 | C[C@@H](Cl)c1nc(N)nc(N[C@@H]2CCOc3ccccc32)n1 [Compound 1.31] | very good pre-emergence control | very good herbicidal post-emergence activity
31 | C[C@H]1CCc2ccccc2[C@@H]1Nc1nc(N)nc(C(C)(C)F)n1 [Compound 7.203] | very good pre-emergence control | very good herbicidal post-emergence activity
32 | CC(F)c1nc(N)nc(NC2c3ccccc3CC2C)n1 (stereo not drawn) [Compound 6.1] | very good pre-emergence control | very good herbicidal post-emergence activity
33 | Cc1nc(N)nc(N[C@@H]2CCOc3c(F)cccc32)n1 [Compound 8.238] | very good pre-emergence control | very good herbicidal post-emergence activity
